Experimental data: US20050071891A1, “Repressible sterility of animals” (priority 1999, published 2005)
Where “and” joins values, the source holds several entries; their conditions need not be identical. Equal entries are not always repeated.

How the values were obtained:
[1] = system: ZF4 cells; assay: Tet-off system in zebrafish cell culture, EGFP reporter; format: cell-based; settings: doxycycline 0.2 μg/ml, 72 h, pTet-Off + pTRE-EGFP cells
Text: The applicant first tested the functionality of the Tet-off system in zebrafish cell cultures. The cell culture was established using ZF4 cells as previously described (Driever and Rangini, 1993). Cells were transfected with the DNAs using Effectene liposomes (Qiagen) according to the manufacturer's instructions. Cells were initially transfected with pTet-Off and placed under neomycin selection for 1 month. Neomycin-resistant cells were then transfected with pTRE-EGFP, and the selection plasmid pTK-Hyg, and placed under hygromycin selection for two weeks. EGFP expression was determined by examining and counting cells with obvious fluorescence and by examination of cell lysates using a fluorometer. Cells were grown in medium with or without doxycycline (0.2 μg/ml) for 72 h prior to assessment of gene expression, or were rinsed of doxycycline and assessed for reporter gene expression 72 h after removal of doxycycline.

[2] = system: P19-pSFM 7 cells; assay: Luciferase activity of pSFM 25 in P19 clones stably integrated with pSFM 7; format: cell-based, mouse; settings: doxycycline at 1 μg/ml, clone 46
Protocol: Stably integrated P19 clones were obtained by using BioRad Gene Pulser II electroporation system. 30 μg DNA electroporated into 10 million cells under following conditions 960 μF and 0.16 kV in a 0.4 cm cuvette (0.4 kV/cm). The next day normal media were replaced with appropriate selection media (300 μg/ml G418).
Selection of a P19 cell line stably integrated with a goosecoid-dependent TET-OFF transactivator P19 cells were electroporated with pSFM 7 (Goosecoid promoter-TET/OFF) linearised with ApaLI and selected for stable integration.
Table 20 showes the luciferase activities of pSFM 25 (TRE luciferase+) shown in counts per second (cps) of transiently transfected in P19-pSFM 7 cells.
Addition of doxycycline at 1 μg/ml reduced luciferase activity from pSFM 25 in this clone by 90 fold. This clone, containing stably integrated pSFM 7 was therefore designated P19-pSFM 7 and used for further testing.

[3] = system: P19-pSFM 7 cells; assay: Expression patterns of reporter constructs in P19-pSFM 7 cells; format: cell-based, mouse; settings: transfected into P19-pSFM 7 cells
Protocol: Fluorescent and transmitted light images were acquired using a CCD camera with a microscope. […] The luminescence assays were conducted by using a dark 96 well plate was done by Victor2 from Wallac or by Topcount NXT from Can berra Packard.
The first stage for testing blocker constructs is to set up an appropriate cell system to detect expression of reporter constructs. Initially, either pdsRED-N1 (CMV promoter RFP), pSFM 6 (CMV promoter goosecoid cDNA fused to RFP) or pSFM 24 (TRE EGFP) were transfected into P19-pSFM 7 cells to test the expression patterns of the EGFP, RFP and goosecoid-fused to RFP proteins (FIG. 37). […] In these cases, RFP expression fused to goosecid in the nucleus is expected to be inhibited in the presence of an appropriate blocker.

[4] = system: zBMP2; assay: Injection of zBMP2 antisense and double stranded DNA constructs into zebrafish embryos; format: in vivo; settings: 100 μg/ml, 1-4 cell stage embryos
Protocol: All the DNA preparations were appropriately linearized and gel purified (Qiaquick Gel Extraction Kit) before injection. Needles were made from borosilicate glass capillaries with filaments (GC100TF-15, Clark Electromedical instruments) using a P-80PC micropipette puller (Sutter Instrument Co.). The needle was back-filled with purified DNA diluted to 100 ng/μl in 1× injection buffer (10×; 50 mM Tris; 5 mM EDTA; 1M KCl, pH7.2) using a hand pulled pipette. Injections were carried out on a dissection microscope fitted with two, 3-dimensional Narshige MN-151 micromanipulators. Embryos were held in place during injection by a hydraulically (mineral oil) driven holding pipette. Injection of DNA solution was facilitated pneumatically using a 3-way foot operated plunge valve (Festo Engineering), connected between the injection needle holder and nitrogen tank. Injection was performed on one-cell stage embryos, unless specifically indicated otherwise. Injected embryos were incubated and reared as described above.
On confirming the ability of in vitro transcribed BMP2 antisense and double stranded transcripts to disrupt larval development, DNA constructs capable of expressing the antisense and double stranded transcripts in vivo were developed and tested. […]

C[C@H]1c2cccc(O)c2C(=O)C2=C(O)[C@]3(O)C(=O)C(C(N)=O)=C(O)[C@@H](N(C)C)[C@@H]3[C@@H](O)[C@@H]21 [doxycycline, reference compound]
EGFP gene expression relative to cells not exposed to doxycycline [1]: approximately 3%
reduction of luciferase activity from pSFM 25 [2]: 90 fold

pSFM 6: goosecoid cDNA fused to red fluorescent protein in pDSRed1-N1
cellular location of reporter expression [3]: detected in the nucleus

B1: pzBMP2-ds: zBMP2 promoter drives about 800 bp of zBMP2 cDNA designed to fold back as dsRNA (SEQ ID NO:13) (nucleic acid)
DNA: GAATTCATGAGGAACTTAGGAGACGACGGGAACGCAGACCGGCCACAGCGCTTCCTCCTCCGGAACTGACTGATCATGGTCGCCGTGGTCCGCGCTCTCACGGTGCTGTTGCTCGGTCAGGTGTTGCTGGGAGGTGCCGTTGGACTCATTCCCGAGATCGACCGACGGAAATACAGTGATTCGGGGAGACACACACCGGAGCGAACTGATACAAACTTCCTGAACGAGTTTGAGCTACGCTTGCTCAATATGTTCGGATTGAAGCGAAAACCCACCCCAAGCAAATCGGCAGTGGTCCCTCAGTACATGCTGGACTTGTATTATATGCACTCTGAAAACGATGACCCGAACATTCGGCGCCCGAGGAGCACTATGGGAAAACATGTAGAAAGGGCAGCCAGCAGAGCAAACACGATACGAAGTTTTCATCACGAAGAGGCTTTCGAGGCACTGTCCAGCCTGAAAGGAAAAACAACGCAGCAGTTTTTCTTCAACCTTACCTCCATTCCTGTCGACTGCCGATTTGCTTGGGGTGGGTTTTCGCTTCAATCCGAACATATTGAGCAAGCGTAGCTCAAACTCGTTCAGGAAGTTTGTATCAGTTCGCTCCGGTGTGTGTCTCCCCGAATCACTGTATTTCCGTCGGTCGATCTCGGGAATGAGTCCAACGGCACCTCCCAGCAACACCTGACCGAGCAACAGCACCGTGAGAGCGCGGACCACGGCGACCATGATCAGTCAGTTCCGGAGGAGGAAGCGCTGTGGCCGGTCTGCGTTCCCGTCGTCTCCTAAGTTCCTCATCTGCAGCAATTGGATATCAAGCTTATCGATGATGATCCAGACATGATAAGATACATTGATGAGTTTGGACAAACCNCANCTAGAATGCAGTGAAAAAAATGCTTTATTTGTGAAATTTGTGATGCTATTGCTTTATTTGTAACCATTATAAGCTGCAATAAACAAGTTAACNACAACAATTGCATTCATTTTATGTTTCAGGTTCAGNGGGAGGTGTGGGAGGTTTTTTAAAGCAAGTAAAACCTCTNCAAATGTGGTATGGCTGATTATGATCCTCTAGATCAGATCCACTAGTTCTAGAGCGGCCGCCACCGCGGTGGAGCTC
modifications: Blocker Molecule
Number Deformed [4]: 21 and 22
mortality, percentage [4]: 14.3% and 16.5%
